The results in this text go back to patent US9783530B2, “Factor Xla inhibitors” (Merck Sharp & Dohme Corp., priority 2014, dated 2017).

purified human Factor XIa, sequence (P03951 388-625): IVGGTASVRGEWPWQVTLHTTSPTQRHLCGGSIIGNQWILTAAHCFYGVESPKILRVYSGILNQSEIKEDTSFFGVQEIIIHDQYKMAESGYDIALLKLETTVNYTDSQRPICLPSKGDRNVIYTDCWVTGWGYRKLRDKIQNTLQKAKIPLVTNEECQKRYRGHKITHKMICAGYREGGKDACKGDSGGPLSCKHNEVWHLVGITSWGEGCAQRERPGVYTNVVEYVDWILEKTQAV
purified human Factor XIa, sequence (P03951 19-387 partner): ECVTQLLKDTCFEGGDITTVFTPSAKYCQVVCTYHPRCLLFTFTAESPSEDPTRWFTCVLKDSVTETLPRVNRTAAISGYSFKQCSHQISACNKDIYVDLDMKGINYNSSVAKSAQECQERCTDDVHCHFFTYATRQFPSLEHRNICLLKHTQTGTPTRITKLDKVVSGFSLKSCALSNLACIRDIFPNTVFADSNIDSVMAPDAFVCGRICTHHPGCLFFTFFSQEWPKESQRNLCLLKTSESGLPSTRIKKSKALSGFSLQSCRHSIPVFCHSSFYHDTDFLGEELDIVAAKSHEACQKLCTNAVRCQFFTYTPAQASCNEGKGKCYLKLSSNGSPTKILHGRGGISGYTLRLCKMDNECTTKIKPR
purified Human plasma kallikrein, sequence (P03952 391-638): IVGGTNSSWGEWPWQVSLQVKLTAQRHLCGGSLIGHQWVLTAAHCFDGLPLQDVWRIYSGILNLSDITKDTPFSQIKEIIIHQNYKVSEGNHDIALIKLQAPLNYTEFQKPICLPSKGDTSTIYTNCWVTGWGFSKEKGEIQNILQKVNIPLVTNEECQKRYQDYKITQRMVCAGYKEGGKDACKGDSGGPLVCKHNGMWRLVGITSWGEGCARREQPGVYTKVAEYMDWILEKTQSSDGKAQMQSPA
purified Human plasma kallikrein, sequence (P03952 20-390 partner): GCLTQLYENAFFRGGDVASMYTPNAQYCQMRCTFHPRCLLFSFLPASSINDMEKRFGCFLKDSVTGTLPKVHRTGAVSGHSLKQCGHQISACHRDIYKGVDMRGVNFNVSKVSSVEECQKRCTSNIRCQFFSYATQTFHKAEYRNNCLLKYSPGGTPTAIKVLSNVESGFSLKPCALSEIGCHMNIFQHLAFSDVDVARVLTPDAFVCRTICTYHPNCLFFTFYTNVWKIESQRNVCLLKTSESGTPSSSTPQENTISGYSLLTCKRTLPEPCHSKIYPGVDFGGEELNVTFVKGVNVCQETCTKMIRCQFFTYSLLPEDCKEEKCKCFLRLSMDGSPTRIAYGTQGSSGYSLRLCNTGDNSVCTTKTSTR

The first experiment has as its target purified Human plasma kallikrein (Homo sapiens (Human), UniProt P03952). Briefly: Kallikrein Assay. Format: biochemical. Conditions: purified Human plasma kallikrein 0.5 nM, substrate Acetyl-K-P-R-AFC, pH 7.4; read-out: P. KLK IC50. As for the experimental part: (§1) The effectiveness of a compound of the present invention as an inhibitor of Kallikrein can be determined using a relevant purified serine protease, and an appropriate synthetic substrate. The rate of hydrolysis of the chromogenic or fluorogenic substrate by the relevant serine protease was measured both in the absence and presence of compounds of the present invention. Assays were conducted at room temperature or at 37° C. […] A decrease in the rate of fluorescence change in the presence of inhibitor is indicative of enzyme inhibition. Such methods are known to one skilled in the art. The results of this assay are expressed as the inhibitory constant, Ki.
Kallikrein determinations were made in 50 mM HEPES buffer at pH 7.4 containing 150 mM NaCl, 5 mM CaCl2, and 0.1% PEG 8000 (polyethylene glycol; Fisher Scientific). Determinations were made using purified Human plasma kallikrein at a final concentration of 0.5 nM (Enzyme Research Laboratories) and the synthetic substrate, Acetyl-K-P-R-AFC (Sigma # C6608) at a concentration of […].
Activity assays were performed by diluting a stock solution of substrate at least tenfold to a final concentration ≦0.2 Km into a solution containing enzyme or enzyme equilibrated with inhibitor. Times required to achieve equilibration between enzyme and inhibitor were determined in control experiments. The reactions were performed under linear progress curve conditions and fluorescence increase measured at 405 Ex/510 Em nm. Values were converted to percent inhibition of the control reaction (after subtracting 100% Inhibition value). IC50 was determined by inflection point from a four parameter logistic curve fit. Ki was calculated using the Cheng Prusoff equation, Ki=IC50/(1+([S]/Km)).
`O=C(O)c1ccc(NC(=O)C(CC2CC2)c2ccc(-c3cc(Cl)ccc3-n3cc(C(F)F)nn3)c[n+]2[O-])cc1` (racemic) [Example 41, 4-{[2-(5-{5-chloro-2-[4-(difluoromethyl)-1H-1,2,3-triazol-1-yl]phenyl}-1-oxidopyridin-2-yl)-3-cyclopropylpropanoyl]amino}benzoic acid]: the IC50 turned out to be 0.363 µM.

Another experiment deals with purified human Factor XIa (Homo sapiens (Human), UniProt P03951). The experiment is described as follows: Factor XIa Assay. Conditions: purified human Factor XIa 40 pM, substrate Z-Gly-Pro-Arg-AFC, pH 7.4; read-out: FXIa IC50. Format: biochemical. How it is done:
as §1, with “Coagulation Factor XIa” for “Kallikrein”, “The results of this assay are expressed as the inhibitory constant, Ki.” left out
Factor XIa determinations were made in 50 mM HEPES buffer at pH 7.4 containing 150 mM NaCl, 5 mM CaCl2, and 0.1% PEG 8000 (polyethylene glycol; JT Baker or Fisher Scientific). Determinations were made using purified human Factor XIa at a final concentration of 40 pM (Sekisui Diagnostics) and he synthetic substrate, Z-Gly-Pro-Arg-AFC, TFA salt (Sigma #C0980) at a concentration of 100 µM.
Activity assays were performed by diluting a stock solution of substrate at least tenfold to a final concentration ≦0.1 Km into a solution containing enzyme or enzyme equilibrated with inhibitor. Times required to achieve equilibration between enzyme and inhibitor were determined in control experiments. Initial velocities of product formation in the absence (Vo) or presence of inhibitor (Vi) were measured. Assuming competitive inhibition, and that unity is negligible compared Km/[S], [I]/e, and [I]/e (where [S], [I], and e respectively represent the total concentrations, of substrate, inhibitor and enzyme), the equilibrium constant (Ki) for dissociation of the inhibitor from the enzyme can be obtained from the dependence of Vo/Vi on [I] shown in the following equation.
Consider `O=C(O)c1ccc(NC(=O)C(O)c2ccc(-c3cc(Cl)ccc3C3CC3)c[n+]2[O-])cc1` (racemic) [Example 11, 4-({[5-(5-chloro-2-cyclopropylphenyl)-1-oxidopyridin-2-yl](hydroxy)acetyl}amino)benzoic acid], for which the IC50 was 2.51 µM.

In the case of `O=C(O)c1ccc(NC(=O)C(CC2CC2)c2ccc(-c3c(F)ccc(Cl)c3F)c[n+]2[O-])cc1` (racemic) [Example 33, 4-({2-[5-(3-chloro-2,6-difluorophenyl)-1-oxidopyridin-2-yl]-3-cyclopropylpropanoyl}amino)benzoic acid], the IC50 was determined as 0.135 µM. On the same count and under the same terms, to `Cc1cc(NC(=O)C(CC2CC2)c2ccc(-c3cc(Cl)ccc3-c3cnco3)c[n+]2[O-])ccc1C(=O)O` (racemic) [Example 36, 4-[(2-{5-[5-chloro-2-(1,3-oxazol-5-yl)phenyl]-1-oxidopyridin-2-yl}-3-cyclopropylpropanoyl)amino]-2-methyl-benzoic acid] belongs 0.0945 µM; to `Cc1cc(NC(=O)C(CC2CC2)c2ccc(-c3cc(Cl)ccc3CN)c[n+]2[O-])ccc1C(=O)O` (racemic) [Example 37, 4-[(2-{5-[2-(aminomethyl)-5-chlorophenyl]-1-oxidopyridin-2-yl}-3-cyclopropylpropanoyl)amino]-2-methylbenzoic acid], 0.228 µM; to `O=C(O)c1ccc(NC(=O)C(CC2CC2)c2ccc(-c3cc(Cl)ccc3-c3nccs3)c[n+]2[O-])cc1` (racemic) [Example 43, 4-[(2-{5-[5-chloro-2-(1,3-thiazol-2-yl)phenyl]-1-oxidopyridin-2-yl}-3-cyclopropylpropanoyl)amino]benzoic acid], 0.0536 µM. Still for that read-out and setting: in the case of `O=C(NC12CCC(C(=O)O)(CC1)CC2)C(Cc1ccccc1)c1ccc(-c2c(F)ccc(Cl)c2F)c[n+]1[O-]` (single isomer, unassigned) [Example 16, 4-({2-[5-(3-chloro-2,6-difluorophenyl)-1-oxidopyridin-2-yl]-3-phenylpropanoyl}amino) bicyclo[2.2.2]octane-1-carboxylic acid] it was 10 µM; in that of `O=C(NC12CCC(C(=O)O)(CC1)CC2)C(Cc1ccccc1)c1ccc(-c2cc(Cl)ccc2-n2cnnn2)c[n+]1[O-]` (single isomer, unassigned) [Example 18, 4-[(2-{5-[5-chloro-2-(1H-tetrazol-1-yl)phenyl]-1-oxidopyridin-2-yl}-3-phenylpropanoyl)amino] bicyclo[2.2.2]octane-1-carboxylic acid], 0.271 µM. Regarding `COC(=O)NC12CCC(NC(=O)C(Cc3ccccc3)c3ccc(-c4cc(Cl)ccc4-n4cnnn4)c[n+]3[O-])(CC1)CC2` (single isomer, unassigned) [Example 20, methyl {4-[(2-{5-[5-chloro-2-(1H-tetrazol-1-yl)phenyl]-1-oxidopyridin-2-yl}-3-phenylpropanoyl)amino]bicyclo[2.2.2]oct-1-yl}carbamate], the half-maximal inhibitory concentration (IC50) came to 1 µM. Still for that read-out and setting: to `N#Cc1ccc(Cl)c(F)c1-c1ccc(C(CC2CC2)C(=O)Nc2ccc(C(=O)O)cc2)[n+]([O-])c1` (single isomer, unassigned) [Example 29, 4-({2-[5-(3-chloro-6-cyano-2-fluorophenyl)-1-oxidopyridin-2-yl]-3-cyclopropylpropanoyl}amino)benzoic acid] belongs 0.458 µM.

Take `O=C(O)c1ccc(NC(=O)C(CC2CC2)c2ccc(-c3cc(Cl)ccc3-n3cnnn3)c[n+]2[O-])c(Cl)c1` (single isomer, unassigned) [Example 31, 3-chloro-4-[(2-{5-[5-chloro-2-(1H-tetrazol-1-yl)phenyl]-1-oxidopyridin-2-yl}-3-cyclopropylpropanoyl)amino]benzoic acid]: the IC50 worked out at 0.752 µM. On the same count and under the same terms, in the case of `O=C(O)c1ccc(NC(=O)C(CC2CC2)c2ccc(-c3cc(Cl)ccc3-c3cnco3)c[n+]2[O-])cc1` (single isomer, unassigned) [Example 34, 4-[(2-{5-[5-chloro-2-(1,3-oxazol-5-yl)phenyl]-1-oxidopyridin-2-yl}-3-cyclopropylpropanoyl)amino]benzoic acid] it was 0.443 µM; in that of `O=C(O)c1ccc(NC(=O)C(CC2CC2)c2ccc(-c3cc(Cl)ccc3OC(F)(F)F)c[n+]2[O-])cc1` (single isomer, unassigned) [Example 38, 4-[(2-{5-[5-chloro-2-(trifluoromethoxy)phenyl]-1-oxidopyridin-2-yl}-3-cyclopropylpropanoyl)amino]benzoic acid], 1 µM; in that of `Cc1cc(C(=O)O)ccc1NC(=O)C(CC1CC1)c1ccc(-c2cc(Cl)ccc2-n2cnnn2)c[n+]1[O-]` (single isomer, unassigned) [Example 46, 4-[(2-{5-[5-chloro-2-(1H-tetrazol-1-yl)phenyl]-1-oxidopyridin-2-yl}-3-cyclopropylpropanoyl)amino]-3-methylbenzoic acid], 1 µM. Take `Cc1cc(NC(=O)C(CC2CC2)c2ccc(-c3cc(Cl)ccc3-n3cnnn3)c[n+]2[O-])ccc1C(=O)O` (single isomer, unassigned) [Example 49, 4-[(2-{5-[5-chloro-2-(1H-tetrazol-1-yl)phenyl]-1-oxidopyridin-2-yl}-3-cyclopropylpropanoyl)amino]-2-methylbenzoic acid]: the IC50 stood at 0.057 µM. As to `O=C(O)c1ccc(NC(=O)[C@@H](Cc2ccccc2)c2ccc(-c3c(F)ccc(Cl)c3F)c[n+]2[O-])cc1` [Example 3, 4-({(2S)-2-[5-(3-chloro-2,6-difluorophenyl)-1-oxidopyridin-2-yl]-3-phenylpropanoyl}amino) benzoic acid], the half-maximal inhibitory concentration (IC50) amounted to 0.825 µM. Still for that read-out and setting: to `O=C(Cc1ccc(-c2cc(Cl)ccc2C2CC2)c[n+]1[O-])Nc1ccc(C(=O)O)cc1` [Example 10, 4-({[5-(5-chloro-2-cyclopropylphenyl)-1-oxidopyridin-2-yl]acetyl}amino) benzoic acid] belongs 2.19 µM; to `O=C(Cc1ccc(-c2cc(Cl)ccc2OC(F)F)c[n+]1[O-])Nc1ccc(C(=O)O)cc1` [Example 12, 4-[({5-[5-chloro-2-(difluoromethoxy)phenyl]-1-oxidopyridin-2-yl}acetyl)amino] benzoic acid], 0.711 µM; to `O=C(Cc1ccc(-c2cc(Cl)ccc2C(F)F)c[n+]1[O-])Nc1ccc(C(=O)O)cc1` [Example 13, 4-[({5-[5-chloro-2-(difluoromethyl)phenyl]-1-oxidopyridin-2-yl}acetyl)amino] benzoic acid], 0.388 µM. On the same count and under the same terms, in the case of `O=C(O)c1ccc(NC(=O)[C@H](Cc2ccccc2)c2ccc(-c3cc(Cl)ccc3-c3cnco3)c[n+]2[O-])cc1` [Example 21, 4-{[(2R)-2-{5-[5-chloro-2-(1,3-oxazol-5-yl)phenyl]-1-oxidopyridin-2-yl}-3-phenylpropanoyl]amino} benzoic acid] it was 0.00052 µM; in that of `O=C(O)c1ccc(NC(=O)[C@@H](Cc2ccccc2)c2ccc(-c3cc(Cl)ccc3-c3cnco3)c[n+]2[O-])cc1` [Example 22, 4-{[(2S)-2-{5-[5-chloro-2-(1,3-oxazol-5-yl)phenyl]-1-oxidopyridin-2-yl}-3-phenylpropanoyl]amino} benzoic acid], 0.364 µM; in that of `Cc1c(-c2c(F)ccc(Cl)c2F)ccc(C(Cc2ccccc2)C(=O)Nc2ccc(C(=O)O)cc2)[n+]1[O-]` (stereo not shown) [Example 26, 6-(1-((4-carboxyphenyl)amino)-1-oxo-3-phenylpropan-2-yl)-3-(3-chloro-2,6-difluorophenyl)-2-methylpyridine 1-oxide], 0.693 µM.
